{
  "source": "patent US20130317037A1",
  "about": "“METHOD OF ADMINISTRATION AND TREATMENT” (GlaxoSmithKline Intellectual Property Development Limited, priority 2010, published 2013)",
  "key": {"SUM225CWN": {"test_system": "SUM225CWN", "assay": "cells", "format": "cell-based", "description": "(§1) From the stock concentration, 8 serial dilutions (1:5) were made with DMSO.\n(§2) Day −1: Plate cells in 100 μl volume in 96 well plate. • Note: Cell number seeded adjusted for growth characteristics, so that at time of assay for proliferation following three-day drug treatment, the control wells should still be in log-growth phase (sub-confluent). Day 0: Drug added to plate for treatment. • A time 0 plate was processed for the proliferation assay to establish a baseline reading at time when drug was added.\n(§3) LBNL are following the protocols set up by the NCI/NIH DTP Human Tumor Cell Line Screen Process (http://dtp.nci.nih.gov/branches/btb/ivclsp.html) and summarized below.\n(§4) [(Ti−Tz)/(C−Tz)]×100 for concentrations for which Ti>/=Tz\n(§5) [(Ti−Tz)/(C−Tz)]×100=50, • which is the drug concentration resulting in a 50% reduction in the net growth in control cells during the drug incubation. TGI: Total growth inhibition is calculated from\n(§6) Ti=Tz. • The drug concentration resulting in total growth inhibition (down to the ‘time 0’ baseline). LC50: Net loss of cell growth at 50% is calculated from\n(§7) [(Ti−Tz)/Tz]×100=−50. • The concentration of drug resulting in a 50% reduction in the cell number at the end of the drug treatment as compared to that at the beginning (time 0) indicating a net loss of cells following treatment.\n(§8) Values are calculated for each of these three parameters if the level of activity is reached; however, if the effect is not reached or is exceeded, the value for that parameter is expressed as greater or less than the maximum or minimum concentration tested."}, "SUM149PT": {"test_system": "SUM149PT", "assay": "cells", "format": "cell-based", "description": "as §1, §2, §3, §4, §5, §6, §7, §8"}, "MDAMB468D": {"test_system": "MDAMB468D", "assay": "cells", "format": "cell-based", "description": "as §1, §2, §3, §4, §5, §6, §7, §8"}, "T47DKBluc": {"test_system": "T47DKBluc", "assay": "cells", "format": "cell-based", "description": "as §1, §2, §3, §4, §5, §6, §7, §8"}, "MCF10F": {"test_system": "MCF10F", "assay": "cells", "format": "cell-based", "description": "as §1, §2, §3, §4, §5, §6, §7, §8"}, "CAMA1": {"test_system": "CAMA1", "assay": "cells", "format": "cell-based", "description": "as §1, §2, §3, §4, §5, §6, §7, §8"}, "UACC812": {"test_system": "UACC812", "assay": "cells", "format": "cell-based", "description": "as §1, §2, §3, §4, §5, §6, §7, §8"}, "MDAMB436L": {"test_system": "MDAMB436L", "assay": "cells", "format": "cell-based", "description": "as §1, §2, §3, §4, §5, §6, §7, §8"}, "PI3K family of enzymes": {"test_system": "PI3K family of enzymes", "assay": "Selectivity in a large panel of protein kinases", "format": "biochemical"}, "EFM-19": {"test_system": "EFM-19", "assay": "Panel A proliferation assay (CellTiter-Glo); HER2 Gain <5, KRAS WT, PIK3CA p.H1047L", "format": "cell-based, human", "conditions": "for IC50: Homo sapiens", "description": "A total of 15 breast cancer cell lines were used in this study. These cells were cultured in RPMI-1640 and supplemented with 5% or 10% fetal bovine serum, 2 mM GlutaMAX™ and 1 mM sodium pyruvate, or in growth medium recommended by the suppliers [American Type Culture Collection, Manassas, Va., USA; Developmental Therapeutics Program, National Cancer Institute, Bethesda, Md., USA; German Collection of Microorganisms and Cell Cultures (DSMZ), Braunschweig, Germany; European Collection of Cell Cultures (ECACC), Porton Down, UK]. Cells of each line were seeded into a 384-well microtiter plate at two cell densities. Low density ranges were 300-1800 cells/well, and a high density was 600 to 3600 cells/well). The plating density was determined by the rate of proliferation of the cell line in the absence of any inhibitor and varied amongst cell lines. High plating densities were double that of low density. Each cell density was plated in triplicate. In total there were 30 wells to be treated with increasing concentrations of Compound B for each cell line at each density. In addition, there were 24 wells of dimethyl sulfoxide (DMSO)-treated controls at each density. After seeding, the cells were incubated at 37° C. in 5% CO2 for 24 hours. Subsequently, Compound B was added to each cell line with 10 concentrations. The dosing solution of Compound B was first prepared in DMSO at a master stock concentration of 10 mM. […] were then made of the stock solution to give a range of working stock concentrations; 10.00 mM, 3.164 mM, 1.001 mM, 316.9 μM, 100.3 μM, 31.74 μM, 10.04 μM, 3.178 μM, 1.006 μM and 318.3 nM. The working stock concentrations of Compound B were then dispensed into the seeded cancer cell lines using a Biomek FX liquid handler to give final treatment concentrations of 0.1% of the stock concentration. A similar volume of DMSO without Compound B was dispensed into the 24 control wells of each seeding density at a concentration of 0.1%. Also, a zero-time plate prepared with a similar cell seeding was read for each cell line at each seeding density immediately after the addition of the DMSO control. After a 72 h incubation, an equal volume of the CellTiter-Glo (CellTiter-Glo Luminescent Cell Viability Assay, Promega, Madison, Wis.) to that of the cell culture medium was added into each well of the plate. After the contents were mixed to induce cell lysis and stabilization, cell luminescence was recorded using a SpectraMax M5^e (Molecular Devices, Sunnyvale, Calif., USA)\nThe luminescence of Compound B treated cells was compared relative to the average of the 24 DMSO-treated control wells at each cell density for every concentration of Compound B for all triplicate wells. The percent intensity values were used in model 205 of XLfit in Microsoft Excel to calculate gIC50s for the low and high seeding density (a 4 parameter logistical fit). Specifically, the midpoint of the growth window (the gIC50) falls half way between the number of cells at the time of compound addition (T=0) and the growth of control cells treated with DMSO. The gIC50 value serves as a metric for measuring the inhibition of proliferation in cancer cells. […] Finally, where data quality permits, the Ymin values (defined as the maximum growth inhibition relative to the cell density at Time-zero) were calculated as a measure of cytotoxicity where data were of reasonable quality."}, "[1]": {"conditions": "Homo sapiens, 50% net loss of cells vs time 0, read-out: LC50 (the source's name)"}, "[2]": {"conditions": "Homo sapiens, 72 h, three-day drug treatment, read-out: gIC50"}},
  "note": "Where two headings read alike, the source gives them in different places.",
  "data": [
    {"smiles": "COc1ncc(-c2ccc3nccc(-c4ccnnc4)c3c2)cc1NS(=O)(=O)c1ccc(F)cc1F", "note": "[Compound B, 2,4-difluoro-N-{2-(methyloxy)-5-[4-(4-pyridazinyl)-6-quinolinyl]-3-pyridinyl}benzenesulfonamide]", "values": [
      {"measurement": "CC50", "setting": "SUM225CWN; [1]", "result": 436, "unit": "nM"},
      {"measurement": "IC50", "setting": "SUM225CWN; [2]", "result": 1.6, "unit": "nM"},
      {"measurement": "TGI", "setting": "SUM225CWN; total growth inhibition", "result": 14.8, "unit": "nM"},
      {"measurement": "CC50", "setting": "SUM149PT; [1]", "result": 2600, "unit": "nM"},
      {"measurement": "IC50", "setting": "SUM149PT; [2]", "result": 20.6, "unit": "nM"},
      {"measurement": "TGI", "setting": "SUM149PT; total growth inhibition", "result": 862.2, "unit": "nM"},
      {"measurement": "CC50", "setting": "MDAMB468D; [1]", "result": 2240, "unit": "nM"},
      {"measurement": "IC50", "setting": "MDAMB468D; [2]", "result": 31.6, "unit": "nM"},
      {"measurement": "TGI", "setting": "MDAMB468D; total growth inhibition", "result": 537.0, "unit": "nM"},
      {"measurement": "CC50", "setting": "T47DKBluc; [1]", "result": 9500, "unit": "nM"},
      {"measurement": "IC50", "setting": "T47DKBluc; [2]", "result": 15.4, "unit": "nM"},
      {"measurement": "TGI", "setting": "T47DKBluc; total growth inhibition", "result": 74.3, "unit": "nM"},
      {"measurement": "IC50", "setting": "MCF10F; Homo sapiens, MCF-10F, 72 h, three-day drug treatment, read-out: gIC50", "result": 2.4, "unit": "nM"},
      {"measurement": "TGI", "setting": "MCF10F; total growth inhibition", "result": 14.3, "unit": "nM"},
      {"measurement": "TGI", "setting": "CAMA1; CAMA1, total growth inhibition", "result": 239.9, "unit": "nM"},
      {"measurement": "IC50", "setting": "CAMA1; Homo sapiens, CAMA-1, 72 h, CAMA1, three-day drug treatment, read-out: gIC50", "result": 89.1, "unit": "nM"},
      {"measurement": "CC50", "setting": "CAMA1; Homo sapiens, CAMA-1, CAMA1, 50% net loss of cells vs time 0, read-out: LC50 (the source's name)", "result": 537, "unit": "nM"},
      {"measurement": "IC50", "setting": "UACC812; Homo sapiens, UACC-812, 72 h, UACC812, three-day drug treatment, read-out: gIC50", "result": 4.9, "unit": "nM"},
      {"measurement": "TGI", "setting": "UACC812; UACC812, total growth inhibition", "result": 24.0, "unit": "nM"},
      {"measurement": "CC50", "setting": "MDAMB436L; [1]", "result": "> 33000", "unit": "nM"},
      {"measurement": "IC50", "setting": "MDAMB436L; [2]", "result": 13.2, "unit": "nM"},
      {"measurement": "TGI", "setting": "MDAMB436L; total growth inhibition", "result": ">33000.0", "unit": "nM"},
      {"measurement": "selectivity for the PI3K family of enzymes", "setting": "PI3K family of enzymes", "result": "good selectivity"},
      {"measurement": "High Density Y-Min", "setting": "EFM-19; EFM-19, high density, % of cells at T = 0", "result": 22.7, "unit": "%"},
      {"measurement": "Low Density Y-Min", "setting": "EFM-19; EFM-19, low density, % of cells at T = 0", "result": 24.1, "unit": "%"},
      {"measurement": "IC50", "setting": "EFM-19; EFM-19, high seeding density, 72 h, read-out: High Density gIC50", "result": 0.5, "unit": "nM"},
      {"measurement": "IC50", "setting": "EFM-19; EFM-19, low seeding density, 72 h, read-out: Low Density gIC50", "result": 0.6, "unit": "nM"},
      {"measurement": "IC50", "setting": "EFM-19; EFM-19, mean of low and high density, read-out: Mean gIC50", "result": 0.55, "unit": "nM"}
    ]}
  ]
}
